# Measured values as given in US11147854B2, “Peptides having immunomodulatory properties” (Riptide Bioscience, Inc., priority 2018, dated 2021).
# Experiments:
# [1] = test system: macrophages from healthy controls; test: Viability of peripheral blood derived macrophages from healthy volunteers (PrestoBlue assay); assay type: cell-based, human; settings: healthy control with low arginase:IFNg ratio of 3.6, peptides 0-100 uM, 96 hours
# Procedure: (§1) Peripheral blood derived macrophages were cultured from healthy volunteers and scleroderma patients and cultured in MCS-F for 7 days prior to qPCR for arginasel (M2 marker) or IFNg (M1 marker), followed by treatment with RP peptides at a range of doses 0-100 uM. After 48 hours media were exchanged and cells were retreated with the peptides. After 96 hours cell viability was assayed by PrestoBlue assay. (FIG. 4A) Macrophages from a healthy control with low arginase:IFNg ratio of 3.6, were resistant to the effects of RP peptides of interest (RP182, RP185, RP832C, RP837) on viability.
# [2] = test system: macrophages from scleroderma patients; test: Viability of peripheral blood derived macrophages from scleroderma patients (PrestoBlue assay); assay type: cell-based, human; settings: for macrophage viability: scleroderma (SSc) patient with raised arginase:IFNg ratio of 8.8, even at 0.01 uM, 96 hours, PrestoBlue; for effect on scleroderma macrophage samples (high arginase:IFNg) versus healthy control samples (low arginase:IFNg) (FIG. 4A-4B): FIG. 4B versus FIG. 4A; for viability of macrophages (FIG. 3): samples from human scleroderma patients, 96 hours incubation, various concentrations
# Procedure: as §1
# CT26 Xenograft = test: Mouse tumor inhibition model with and without anti-PD1 antibody (FIG. 2); assay type: in vivo; settings: peptide 10 mg/kg qd
# Procedure: The peptides RP832C and RP185 were administered at 10 mg/kg qd. The anti-PD1 antibody was administered intraperitoneally at 200 ug twice per week.
Sequence,macrophage viability [1],macrophage viability [2],tumor volume (CT26 Xenograft),effect on scleroderma macrophage samples (high arginase:IFNg) versus healthy control samples (low arginase:IFNg) (FIG. 4A-4B) [2],viability of macrophages (FIG. 3) [2]
KFRKAFKRFF [RP182],resistant,greatly reduced viability,–,–,–
FFKKFFKKFK [RP185],resistant,greatly reduced viability,reduce tumor volume,–,–
RWKFGGFKWR [RP832C],resistant,greatly reduced viability,reduce tumor volume,selective effect,reduce viability
FWKRFVRKWR [RP837],resistant,greatly reduced viability,–,selective effect,reduce viability
